Calls of active or inactive are those of the source. The rule behind the calls is not given here.

For the series, the system named is GENE-TOX genotoxicity assays, various organisms and cells. Description: GENE-TOX mutagenicity studies. To be noted: for call: Assay Type: In vivo carcinogenicity studies.
The mark [1] stands for this setting: Species/Cell Type: Nonhuman, Assay Type: Sister-chromatid exchange (SCE) in vivo, Assay Code: SC3T, Evaluation Type: Evaluation B (Post-1980).
The mark [2] stands for this setting: Species/Cell Type: Rat primary hepatocytes, Assay Type: Unscheduled DNA synthesis (UDS) in vitro, DNA effects, Assay Code: UDP-, Evaluation Type: Evaluation A (Pre-1980).
Where [3] appears, read: Species/Cell Type: Saccharomyces cerevisiae, Assay Type: Mitotic recombination or gene conversion, Assay Code: YEH-, Evaluation Type: Evaluation A (Pre-1980).
[4] abbreviates: Species/Cell Type: Salmonella typhimurium (one or more of the five standard strains: TA98, TA100, TA1535, TA1537, and TA1538), Assay Type: Histidine reverse gene mutation, Ames assay, Assay Code: SAL-, Evaluation Type: Evaluation A (Pre-1980).
The mark [5] stands for this setting: Species/Cell Type: Salmonella typhimurium (one or more of the five standard strains: TA98, TA100, TA1535, TA1537, and TA1538), Assay Type: Histidine reverse gene mutation, Ames assay, Assay Code: SALT, Evaluation Type: Evaluation A (Pre-1980).
Where [6] appears, read: Species/Cell Type: Human lymphocytes, Assay Type: Sister-chromatid exchange (SCE) in vitro, Assay Code: SCL+D, Dose Response: With dose response, Evaluation Type: Evaluation B (Post-1980).
Setting [7] is: Species/Cell Type: Human, Assay Type: Sister-chromatid exchange (SCE) in vitro, Assay Code: SC1+D, Dose Response: With dose response, Evaluation Type: Evaluation B (Post-1980).
Where [8] appears, read: Species/Cell Type: Mammalian polychromatic erythrocytes, Assay Type: Micronucleus test, chromosome aberrations, Assay Code: MNTT, Evaluation Type: Evaluation B (Post-1980).
[9] abbreviates: Species/Cell Type: Salmonella typhimurium (one or more of the five standard strains: TA98, TA100, TA1535, TA1537, and TA1538), Assay Type: Histidine reverse gene mutation, Ames assay, Assay Code: SAL+*, Activation: With metabolic activation, Evaluation Type: Evaluation A (Pre-1980).
Where [10] appears, read: Species/Cell Type: Bacillus subtilis (H17 vs M45), Assay Type: Rec-assay, spot test, DNA effects (bacterial DNA repair), Assay Code: REWT, Evaluation Type: Evaluation A (Pre-1980).
[11] abbreviates: Species/Cell Type: Drosophila melanogaster, Assay Type: Sex-linked recessive lethal gene mutation, Assay Code: SRLT, Evaluation Type: Evaluation A (Pre-1980).

`c1ccc2cc3ccccc3cc2c1`: the mutagenic call reads like this: (Species/Cell Type: Escherichia coli polA (W3110 vs P3478), Assay Type: Rec-assay, DNA effects (bacterial DNA repair), Assay Code: RE2-, Evaluation Type: Evaluation A (Pre-1980)) “inactive; negative”; (Species/Cell Type: Escherichia coli polA (W3119 vs P3478), Assay Type: Rec-assay, DNA effects (bacterial DNA repair), Assay Code: RE1T, Evaluation Type: Evaluation A (Pre-1980)) “no conclusion”; (Species/Cell Type: Fischer rat embryo (RLV/1706) cells, Assay Type: Cell transformation, viral enhanced, Assay Code: CTRT, Evaluation Type: Evaluation A (Pre-1980)) “no conclusion”; (Species/Cell Type: Human diploid fibroblasts, Assay Type: Unscheduled DNA synthesis (UDS) in vitro, DNA effects, Assay Code: UDH-*, Activation: With metabolic activation, Evaluation Type: Evaluation A (Pre-1980)) “inactive; negative”; (Species/Cell Type: Mammalian polychromatic erythrocytes, Assay Type: Micronucleus test, chromosome aberrations, Assay Code: MNTT, Evaluation Type: Evaluation A (Pre-1980)) “no conclusion”; (Species/Cell Type: Mouse (BALB/c-3T3) cells, Assay Type: Cell transformation, Assay Code: CTB-, Evaluation Type: Evaluation A (Pre-1980)) “inactive; negative”. The mutagenic call reads like this: (Species/Cell Type: Mouse embryo (AKR/ME) cells, Assay Type: Cell transformation, Assay Code: CTK-, Evaluation Type: Evaluation A (Pre-1980)) “inactive; negative”; (Species/Cell Type: Mouse, Sex: Male, Assay Type: Sperm morphology, Assay Code: SPI-, Evaluation Type: Evaluation A (Pre-1980)) “inactive; negative”; (Species/Cell Type: Nonhuman, Assay Type: Chromosome aberrations in vitro, Assay Code: CY&-, Evaluation Type: Evaluation A (Pre-1980)) “inactive; negative”; (Species/Cell Type: Nonhuman, Assay Type: Sister-chromatid exchange (SCE) in vitro, Assay Code: SC2+D, Dose Response: With dose response, Evaluation Type: Evaluation B (Post-1980)) “active; positive”; (Species/Cell Type: Nonhuman, Assay Type: Sister-chromatid exchange (SCE) in vitro, Assay Code: SC2T, Evaluation Type: Evaluation A (Pre-1980)) “no conclusion”; (Species/Cell Type: Nonhuman, Assay Type: Sister-chromatid exchange (SCE) in vivo, Assay Code: SC3-, Evaluation Type: Evaluation A (Pre-1980)) “inactive; negative”. Further, the mutagenic call was “no conclusion” under setting [1]; “inactive; negative” under setting [2]; “inactive; negative” under setting [3]; “inactive; negative” under setting [4]; “no conclusion” (Species/Cell Type: Salmonella typhimurium, Assay Type: Forward and reverse gene mutation, host-mediated assay, Assay Code: HMAT, Evaluation Type: Evaluation A (Pre-1980)); “inactive; negative” (Species/Cell Type: Syrian hamster embryo (SHE) cells, Assay Type: Cell transformation, clonal assay, Assay Code: CTC-, Evaluation Type: Evaluation A (Pre-1980)). Where the note is “Species/Cell Type: Nonhuman, Assay Code: CCGT, Evaluation Type: Evaluation A (Pre-1980)”, the call is “no conclusion”.
As to `c1ccc2cc3c(cc2c1)-c1cccc2cccc-3c12`, where the note is “Species/Cell Type: Nonhuman, Assay Code: CCG+, Evaluation Type: Evaluation A (Pre-1980)”, the call was “active; positive”.
For the compound `CNC1(c2ccccc2Cl)CCCCC1=O` (configuration not stated), the mutagenic call under setting [5] was “no conclusion”.
For `Cc1ccc(N=Nc2ccc(N(C)C)cc2)cc1`, the mutagenic call under setting [2] was “inactive; negative”.
Consider `O=c1cc(-c2ccccc2)oc2c1ccc1ccccc12`, for which the mutagenic call is “active; positive” under setting [6]; “active; positive” under setting [7]; “no conclusion” (Species/Cell Type: Human, Assay Type: Sister-chromatid exchange (SCE) in vitro, Assay Code: SC1T, Evaluation Type: Evaluation A (Pre-1980)); “no conclusion” under setting [8]; “inactive; negative” (Species/Cell Type: Syrian hamster embryo (SA7/SHE) cells, Assay Type: Cell transformation, viral enhanced, Assay Code: CT7-, Evaluation Type: Evaluation A (Pre-1980)).
Take `COc1ccccc1-c1ccccc1`: the mutagenic call under setting [3] was “inactive; negative” and the mutagenic call under setting [4] was “inactive; negative”.
Turning to `O=C1NC(=O)C(c2ccc(O)cc2)(c2ccc(O)cc2)N1`, the mutagenic call under setting [8] is “no conclusion”.
With `ClC(Br)Br`, the mutagenic call was “active; positive” under setting [6]; “active; positive” under setting [7]; “active; positive” (Species/Cell Type: Nonhuman, Assay Type: Sister-chromatid exchange (SCE) in vivo, Assay Code: SC3+D, Dose Response: With dose response, Evaluation Type: Evaluation B (Post-1980)).
As to `COc1ccc2[nH]c3c(C)c4ccncc4c(C)c3c2c1`, the mutagenic call (Species/Cell Type: Chinese hamster ovary (CHO) cells, Assay Type: Forward gene mutation at the HPRT locus, Assay Code: CHO+, Evaluation Type: Evaluation B (Post-1980)) was “active; positive”.
In the case of `Oc1cc(O)c2ccccc2c1`, under “Species/Cell Type: Allium cepa, Assay Type: Chromosome aberrations, Assay Code: ALCT, Evaluation Type: Evaluation A (Pre-1980)”, the mutagenic call is “no conclusion”.
For `C=CCN(CC=C)N=O`, under setting [9], the mutagenic call was “active; positive”.
In the case of `[C-]#[N+]C(=C\c1ccc(O)cc1)/C(=C/c1ccc(O)cc1)[N+]#[C-]`, the mutagenic call under setting [10] is “no conclusion”.
Take `C(=C\c1ccccc1)/c1ccccc1`: under setting [4], the mutagenic call was “inactive; negative”.
On to `Clc1ccccc1`, for which, where the note is “Species/Cell Type: Mammalian polychromatic erythrocytes, Assay Type: Micronucleus test, chromosome aberrations, Assay Code: MNT+, Evaluation Type: Evaluation B (Post-1980)”, the mutagenic call was “active; positive”.
For `Nc1cccc2cc3ccccc3nc12`, the mutagenic call is recorded as “no conclusion” (Species/Cell Type: Saccharomyces cerevisiae, Assay Type: Forward gene mutation, Assay Code: YEFT, Evaluation Type: Evaluation A (Pre-1980)) and “no conclusion” (Species/Cell Type: Saccharomyces cerevisiae, Assay Type: Reverse gene mutation, Assay Code: YERT, Evaluation Type: Evaluation A (Pre-1980)).
Take `CCCN(N=O)C(N)=O`: the mutagenic call is “inactive; negative” (Species/Cell Type: Human diploid fibroblasts, Assay Type: Unscheduled DNA synthesis (UDS) in vitro, DNA effects, Assay Code: UDH-, Evaluation Type: Evaluation A (Pre-1980)) and “active; positive” (Species/Cell Type: Saccharomyces cerevisiae, Assay Type: Mitotic recombination or gene conversion, Assay Code: YEC+, Evaluation Type: Evaluation A (Pre-1980)). Besides, under “Species/Cell Type: Nonhuman, Assay Code: CCG+L, Evaluation Type: Evaluation A (Pre-1980)”, the call is “active; positive”.
With `CC(C)NCC(Cl)c1ccc2ccccc2c1` (configuration not stated), the mutagenic call (Species/Cell Type: Mouse, Sex: Male, Assay Type: Sperm morphology, Assay Code: SPI+, Evaluation Type: Evaluation A (Pre-1980)) is “active; positive”.
Consider `CCN(CCCO)N=O`, for which the mutagenic call under setting [9] is “active; positive”.
As for `CCc1cc2c(c3ccc4ccccc4c13)CCC2=O`, the mutagenic call under setting [9] is “active; positive”.
With `C[CH2][Hg][N](c1ccccc1)S(=O)(=O)c1ccc(C)cc1`, the mutagenic call (Species/Cell Type: Drosophila melanogaster, Assay Type: Sex-linked recessive lethal gene mutation, Assay Code: SRL+, Evaluation Type: Evaluation A (Pre-1980)) was “active; positive”.
For `O=C(NO)NO`, the mutagenic call runs as follows: (Species/Cell Type: Drosophila melanogaster, Assay Type: Aneuploidy, sex chromosome gain, chromosome aberrations, Assay Code: DAGT, Evaluation Type: Evaluation A (Pre-1980)) “no conclusion”; (Species/Cell Type: Drosophila melanogaster, Assay Type: Aneuploidy, whole sex chromosome loss, chromosome aberrations, Assay Code: DAC-M, Evaluation Type: Evaluation A (Pre-1980)) “inactive; negative”; under setting [11], “no conclusion”.
On to `CCOP(=S)(OCC)SC1OCCOC1SP(=S)(OCC)OCC` (configuration not stated), for which the call (Species/Cell Type: Nonhuman, Assay Code: CCG-, Evaluation Type: Evaluation A (Pre-1980)) is “inactive; negative”.
Turning to `COCCOc1cnc(NS(=O)(=O)c2ccccc2)nc1`, the mutagenic call under setting [1] is “no conclusion”.
For `C`, the mutagenic call (Species/Cell Type: Nonhuman, Assay Type: Sister-chromatid exchange (SCE) in vitro, Assay Code: SC2+, Evaluation Type: Evaluation B (Post-1980)) was “active; positive”.
As to `CCc1ccc(O)cc1`, the mutagenic call is, setting by setting: (Species/Cell Type: Human lymphocytes, Assay Type: Sister-chromatid exchange (SCE) in vitro, Assay Code: SCLT, Evaluation Type: Evaluation B (Post-1980)) “no conclusion”; (Species/Cell Type: Human, Assay Type: Sister-chromatid exchange (SCE) in vitro, Assay Code: SC1T, Evaluation Type: Evaluation B (Post-1980)) “no conclusion”.
Turning to `Nc1ccc(N=Nc2cccc(N=Nc3ccc(N)cc3N)c2)c(N)c1`, the mutagenic call under setting [10] is recorded as “no conclusion”.
On to `CN(C)c1ccc(C(=C2C=CC(=[N+](C)C)C=C2)c2ccc(N(C)C)cc2)cc1`, for which the mutagenic call is “active; positive” (Species/Cell Type: Bacillus subtilis (H17 vs M45), Assay Type: Rec-assay, spot test, DNA effects (bacterial DNA repair), Assay Code: REW+, Evaluation Type: Evaluation A (Pre-1980)); “no conclusion” (Species/Cell Type: Bacillus subtilis (H17 vs M45T), Assay Type: Rec-assay, spot test, DNA effects (bacterial DNA repair), Assay Code: REXT, Evaluation Type: Evaluation A (Pre-1980)); “no conclusion” under setting [11]; “inactive; negative” under setting [3]; “no conclusion” under setting [5].

The values are drawn from PubChem BioAssay AID1259408 (Genetic Toxicology Data Bank (GENE-TOX), 2018).
